From PubChem BioAssay (NCI)
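These data come from cells grown in 96-well plates and exposed to compound for 48 hours at five concentrations. GI50 marks 50% less growth. Definition used: TGI = concentration required for complete inhibition of growth.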

Tests used:
Assay in all cases: NCI-60 cell line screen, 48 h
[1] = tested on: IGROV1 ovarian
[2] = tested on: A498 renal
[3] = tested on: K-562 leukemia
[4] = tested on: NCI-H23 lung
[5] = tested on: HCC-2998 colon
[6] = tested on: NCI-H460 lung
[7] = tested on: SNB-75 CNS
[8] = tested on: HOP-92 NSCLC
[9] = tested on: HT29 colon
[10] = tested on: DU-145 prostate

Row | Compound | TGI [1] [µM] | TGI [2] [µM] | TGI [3] [µM] | TGI [4] [µM] | TGI [5] [µM] | TGI [6] [µM] | TGI [7] [µM] | TGI [8] [µM] | TGI [9] [µM] | TGI [10] [µM] | GI50 [2] [µM] | GI50 [10] [µM] | GI50 [7] [µM] | GI50 [8] [µM] | GI50 [9] [µM]
1 | CC(C)(C)OC(=O)NCC(CNC(=O)OC(C)(C)C)c1nc(C(N)=O)cs1 | > 100 | > 100 | > 100 | > 100 | > 100 | > 100 | > 100 | > 100 | > 100 |  |  |  |  |  | 
2 | C=CCC1C(O[Si](C)(C)C(C)(C)C)C(CO[Si](C)(C)C(C)(C)C)OC1n1ccc(=O)[nH]c1=O (configuration not stated) | 3.02 | 3.68 |  | 2.8 | 3.27 | 2.93 | 2.79 | 2.5 | 2.8 | 4.54 |  |  |  |  | 
3 | O=c1c(-c2ccccc2)c(SCCO)n(-c2ccccc2)c(=S)n1-c1ccccc1 | > 100 |  | > 100 | > 100 |  | > 100 | > 100 |  | > 100 | > 100 |  |  |  |  | 
4 | CCN=C1C=CC(=C(c2ccc(N(CC)CC)cc2)c2ccc(N(CC)CC)cc2)c2ccccc21 |  | 0.444 |  |  |  |  | 0.879 | 0.0922 | 1.01 | 1.37 | 0.0692 | 0.0492 | 0.0304 | 0.0175 | 0.033
5 | O=C1CC(=O)n2cnc3cccc(c32)N1 | > 100 | > 100 | > 100 | > 100 |  | > 100 | > 100 | > 100 | > 100 | > 100 |  |  |  |  | 
6 | Cc1ccc(S(=O)CC(CF)OCn2cc(C)c(=O)[nH]c2=O)cc1 (configuration not stated) | > 100 |  |  | > 100 | > 100 | > 100 | > 100 | > 100 |  | > 100 |  |  |  |  | 
7 | CN(Cc1cnc2nc(N)nc(N)c2n1)c1ccc(C(=O)NC(CO)CCCO)cc1 (configuration not stated) | > 100 | > 100 | > 100 | > 100 |  | > 100 | > 100 |  | > 100 | > 100 |  |  |  |  | 
8 | COc1ccc(C(SC2C(O)C(CO)OC2n2ccc(=O)[nH]c2=O)(c2ccccc2)c2ccc(OC)cc2)cc1 (configuration not stated) | 40.9 |  | > 100 | 39.6 | 30.3 | 26 | 48.9 | 29.7 | 35.6 | 34.4 |  |  |  |  | 
9 | C=C(C)CC1(O[Si](C)(C)C)C(=O)C(OCC)=C1OCC (configuration not stated) | > 100 | > 100 |  | > 100 |  | > 100 | > 100 | > 100 | > 100 | > 100 |  |  |  |  | 
10 | COc1cc(C2C3=C(COC3=O)Oc3cc4c(cc32)OCO4)cc(OC)c1O (configuration not stated) | 21.9 | 6.75 | 0.402 | 1.81 | 0.121 | 4.05 |  | 5.55 | 0.984 | 0.391 |  |  |  |  | 
11 | CC1(C)CC2(CC(C)(C)N1O)NC(=O)OC2=O | > 100 | > 100 | > 100 | > 100 | > 100 | > 31.6 | > 100 | > 100 | > 100 |  |  |  |  |  | 
12 | CCOC(=O)Nn1c(CC#N)nnc1Cc1ccccc1 | > 100 |  | > 100 | > 100 | > 100 | > 100 | > 100 | > 100 | > 100 | > 100 |  |  |  |  | 
13 | COc1ccc(C(=O)CC(c2ccccc2)[C@H]2C(c3ccc(OC)cc3)=Nc3c(nc(SC)n(C)c3=O)NC2c2ccccc2)cc1 (some centres not stated) | > 100 | > 100 | > 100 | > 100 | > 100 | > 100 |  | > 100 | > 100 | > 100 |  |  |  |  | 
14 | CC(C)/C(Cl)=N\OC(NC(=O)P(=O)(c1ccccc1)c1ccccc1)(C(F)(F)F)C(F)(F)F | 28.4 | 28.6 | 23.8 | 23.8 | 33.4 | 53.7 |  | 12.8 | 59.1 | 72 |  |  |  |  | 
15 | CN(C)CCn1c(CO)nc2c1c(=O)n(C)c(=O)n2C | > 100 | > 100 | > 100 | > 100 | > 100 | > 100 | > 100 |  | > 100 | > 100 |  |  |  |  | 
16 | Cc1c(C(=O)OCc2ccccc2)[n+](=O)c2cc(Cl)c(Cl)cc2n1[O-] | 19 | 35.6 | 57.6 | 32.5 | 28.5 | 30.7 |  | 20 | 32.2 | 27.6 |  |  |  |  | 
17 | Cc1cc(OC(=O)NCn2cc(-c3ccccc3)nn2)ccc1Cl | > 100 |  | > 100 | > 100 | 39.2 | > 100 | > 100 | > 100 | > 100 | > 100 |  |  |  |  | 
18 | NCC(O)CSCc1ccc(Cl)cc1 (configuration not stated) | > 100 | > 100 | > 100 | > 100 | > 100 | > 100 |  | > 100 | > 100 | > 100 |  |  |  |  | 
19 | c1ccc(/C(=N/Nc2ccncn2)c2ccccn2)cc1 | 53.6 |  | > 100 | 46.5 | > 100 | > 100 | 57.8 |  | > 100 | > 100 |  |  |  |  | 
20 | COc1ccc(Nc2ccc3ccccc3c2-c2c(O)ccc3ccccc23)cc1 | 23 |  | 54.4 | 32.4 | 29.1 | 30 | 46.2 | 14.3 | 29.6 | 33.8 |  |  |  |  | 
21 | COc1cccc(N[C@@H]2c3cc4c(cc3C(c3cc(OC)c(O)c(OC)c3)[C@H]3C(=O)OCC32)OCO4)c1 (some centres not stated) | 33.8 | 2.1 | 14.1 | 9.96 | 3.79 | 1.6 |  | 9.33 | 10.5 |  |  |  |  |  | 
22 | Cc1cc(=O)[nH]c(NN2C(Cl)C(=O)C2c2ccc([N+](=O)[O-])cc2)n1 (configuration not stated) | 16.1 |  | 15 | 26.1 | 31.1 | 18.8 | 9.11 | 27.3 | 43.8 |  |  |  |  |  | 
23 | O=c1oc(C(C(F)(F)F)C(F)(F)F)nc2ccccc12 | > 100 | > 100 | > 100 | > 100 | > 100 | > 100 |  | > 100 | > 100 |  |  |  |  |  | 
24 | COc1cc(C2c3cc4c(cc3C3OC[C@@H]2C3CO)OCO4)cc(OC)c1OC (some centres not stated) | > 100 | > 100 | > 100 |  |  | 47.8 | > 100 | > 100 | > 100 | > 100 |  | 30.4 |  |  | 
